IC50 data for 28 compounds are collected here from ChEMBL document CHEMBL3045722, “Synthesis, calcium-channel blocking activity, and conformational analysis of some novel 1,4-dihydropyridines: application of PM3 and DFT computational methods” (Med Chem Res, 2012).

A word on the IC50: it is the midpoint of a concentration-inhibition curve.

For the experiment, the target named is Voltage-dependent L-type calcium channel subunit alpha-1C (Cavia porcellus, UniProt O35505). The experiment can be described thus: Antagonist activity at Cavia porcellus albino (guinea pig) calcium channel assessed as inhibition of KCl-induced ileal longitudinal smooth muscle contraction.
Sequence of Voltage-dependent L-type calcium channel subunit alpha-1C (O35505 whole entry): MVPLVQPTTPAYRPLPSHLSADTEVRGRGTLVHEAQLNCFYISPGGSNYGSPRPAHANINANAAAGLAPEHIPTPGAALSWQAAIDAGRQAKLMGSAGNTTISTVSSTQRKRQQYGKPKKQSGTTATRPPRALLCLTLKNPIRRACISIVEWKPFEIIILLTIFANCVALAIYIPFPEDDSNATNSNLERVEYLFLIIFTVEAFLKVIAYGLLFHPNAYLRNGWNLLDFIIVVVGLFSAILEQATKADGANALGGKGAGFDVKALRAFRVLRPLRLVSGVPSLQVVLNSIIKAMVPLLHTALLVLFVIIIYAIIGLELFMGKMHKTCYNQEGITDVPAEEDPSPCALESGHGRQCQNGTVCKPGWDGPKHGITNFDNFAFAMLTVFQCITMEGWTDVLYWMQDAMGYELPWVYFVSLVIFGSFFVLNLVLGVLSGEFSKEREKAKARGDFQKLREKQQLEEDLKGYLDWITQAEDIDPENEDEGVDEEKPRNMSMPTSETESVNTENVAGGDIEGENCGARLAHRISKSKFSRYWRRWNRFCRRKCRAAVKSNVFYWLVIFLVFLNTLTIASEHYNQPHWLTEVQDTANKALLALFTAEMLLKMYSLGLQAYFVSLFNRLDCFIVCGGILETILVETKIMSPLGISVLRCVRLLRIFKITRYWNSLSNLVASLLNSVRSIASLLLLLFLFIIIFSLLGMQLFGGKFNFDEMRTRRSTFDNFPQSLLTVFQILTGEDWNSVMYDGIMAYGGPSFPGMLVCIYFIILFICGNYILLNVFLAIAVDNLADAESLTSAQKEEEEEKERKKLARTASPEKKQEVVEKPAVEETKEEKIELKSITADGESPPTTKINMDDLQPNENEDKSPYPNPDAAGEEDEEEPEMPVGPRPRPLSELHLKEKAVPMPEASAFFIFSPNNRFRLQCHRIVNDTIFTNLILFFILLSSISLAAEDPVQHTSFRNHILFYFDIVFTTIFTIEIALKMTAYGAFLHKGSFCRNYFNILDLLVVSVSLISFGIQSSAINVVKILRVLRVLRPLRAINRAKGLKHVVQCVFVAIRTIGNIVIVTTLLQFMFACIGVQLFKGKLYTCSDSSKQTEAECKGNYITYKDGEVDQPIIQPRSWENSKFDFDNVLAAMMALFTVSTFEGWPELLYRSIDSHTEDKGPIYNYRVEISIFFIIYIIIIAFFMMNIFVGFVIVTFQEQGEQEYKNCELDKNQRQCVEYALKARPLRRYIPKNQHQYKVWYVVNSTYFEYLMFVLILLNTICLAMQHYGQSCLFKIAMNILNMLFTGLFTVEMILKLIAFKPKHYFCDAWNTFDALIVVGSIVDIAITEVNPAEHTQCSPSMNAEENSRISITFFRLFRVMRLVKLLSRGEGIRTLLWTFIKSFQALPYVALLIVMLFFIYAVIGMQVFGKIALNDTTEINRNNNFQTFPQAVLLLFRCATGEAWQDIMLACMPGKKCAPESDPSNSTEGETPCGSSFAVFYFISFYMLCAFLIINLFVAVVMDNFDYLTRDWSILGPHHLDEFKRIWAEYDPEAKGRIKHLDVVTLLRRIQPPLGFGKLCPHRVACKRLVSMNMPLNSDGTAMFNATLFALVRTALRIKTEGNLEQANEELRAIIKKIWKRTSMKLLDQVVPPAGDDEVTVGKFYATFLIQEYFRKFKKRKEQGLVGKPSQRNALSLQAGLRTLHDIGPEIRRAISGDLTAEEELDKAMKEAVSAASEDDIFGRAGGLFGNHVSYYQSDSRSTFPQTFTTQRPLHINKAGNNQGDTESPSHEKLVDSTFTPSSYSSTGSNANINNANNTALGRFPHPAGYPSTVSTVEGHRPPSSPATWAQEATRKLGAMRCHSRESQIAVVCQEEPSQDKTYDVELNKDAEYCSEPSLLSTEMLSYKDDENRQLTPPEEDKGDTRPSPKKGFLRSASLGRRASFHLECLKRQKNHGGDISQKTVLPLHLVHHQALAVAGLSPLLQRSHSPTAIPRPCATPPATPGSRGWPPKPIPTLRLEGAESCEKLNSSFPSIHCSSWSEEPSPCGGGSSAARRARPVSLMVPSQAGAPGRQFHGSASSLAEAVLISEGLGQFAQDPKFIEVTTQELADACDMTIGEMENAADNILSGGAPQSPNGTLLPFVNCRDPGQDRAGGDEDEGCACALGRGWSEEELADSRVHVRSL
On to `COC(=O)C1=C(C)NC(C)=C(C(=O)OCCCc2ccccc2)C1c1cnc(SC)n1Nc1ccccc1` (stereo not drawn), for which the IC50 was 3.05 nM.
Then `CCOC(=O)C1=C(C)NC(C)=C(C(=O)OC(C)C)C1c1cnc(SC)n1Nc1ccccc1` (stereo not drawn), with 3.22 nM; and `CCOC(=O)C1=C(C)NC(C)=C(C(=O)OCCOC)C1c1cnc(SC)n1Nc1ccccc1` (stereo not drawn), with 2.91 nM.
Then `CCOC(=O)C1=C(C)NC(C)=C(C(=O)OCc2ccccc2)C1c1cnc(SC)n1Nc1ccccc1` (stereo not drawn), with 1.86 nM; and `CCOC(=O)C1=C(C)NC(C)=C(C(=O)OCCCc2ccccc2)C1c1cnc(SC)n1Nc1ccccc1` (stereo not drawn), with 2.54 nM.
With `CSc1ncc(C2C(C(=O)OC(C)C)=C(C)NC(C)=C2C(=O)OC(C)(C)C)n1Nc1ccccc1` (stereo not drawn), the IC50 worked out at 68.2 nM.
Then `COCCOC(=O)C1=C(C)NC(C)=C(C(=O)OC(C)C)C1c1cnc(SC)n1Nc1ccccc1` (stereo not drawn), with 53.4 nM; and `CSc1ncc(C2C(C(=O)OCc3ccccc3)=C(C)NC(C)=C2C(=O)OC(C)C)n1Nc1ccccc1` (stereo not drawn), with 7.24 nM; and `CSc1ncc(C2C(C(=O)OCCCc3ccccc3)=C(C)NC(C)=C2C(=O)OC(C)C)n1Nc1ccccc1` (stereo not drawn), with 6.22 nM.
The value for `CSc1ncc(C2C(C(=O)OCC3CCCCC3)=C(C)NC(C)=C2C(=O)OC(C)C)n1Nc1ccccc1` (stereo not drawn) was 56 nM; that for `CSc1ncc(C2C(C(=O)OCC(C)C)=C(C)NC(C)=C2C(=O)OCC(C)C)n1Nc1ccccc1` was 6.71 nM.
As for `COCCOC(=O)C1=C(C)NC(C)=C(C(=O)OCCOC)C1c1cnc(SC)n1Nc1ccccc1`, the IC50 stood at 17.9 nM.
Then `CSc1ncc(C2C(C(=O)OC3CCCC3)=C(C)NC(C)=C2C(=O)OC2CCCC2)n1Nc1ccccc1`, with 425 nM.
For `CSc1ncc(C2C(C(=O)OC3CCCCC3)=C(C)NC(C)=C2C(=O)OC2CCCCC2)n1Nc1ccccc1`, the IC50 was 465 nM.
Then `CSc1ncc(C2C(C(=O)OCC3CCCCC3)=C(C)NC(C)=C2C(=O)OCC2CCCCC2)n1Nc1ccccc1`, with 621 nM; and `COC(=O)C1=C(C)NC(C)=C(C(=O)OC)C1c1cnc(SC)n1Nc1ccccc1`, with 3.54 nM; and `CCOC(=O)C1=C(C)NC(C)=C(C(=O)OCC)C1c1cnc(SC)n1Nc1ccccc1`, with 1.69 nM.
For `CCCOC(=O)C1=C(C)NC(C)=C(C(=O)OCCC)C1c1cnc(SC)n1Nc1ccccc1`, the IC50 amounted to 2.29 nM.
Then `CSc1ncc(C2C(C(=O)OC(C)C)=C(C)NC(C)=C2C(=O)OC(C)C)n1Nc1ccccc1`, with 2.16 nM; and `CSc1ncc(C2C(C(=O)OC(C)(C)C)=C(C)NC(C)=C2C(=O)OC(C)(C)C)n1Nc1ccccc1`, with 121 nM.
Then `CSc1ncc(C2C(C(=O)OCc3ccccc3)=C(C)NC(C)=C2C(=O)OCc2ccccc2)n1Nc1ccccc1`, with 1.49 nM; and `CSc1ncc(C2C(C(=O)OCCc3ccccc3)=C(C)NC(C)=C2C(=O)OCCc2ccccc2)n1Nc1ccccc1`, with 2.79 nM.
On to `CSc1ncc(C2C(C(=O)OCCCc3ccccc3)=C(C)NC(C)=C2C(=O)OCCCc2ccccc2)n1Nc1ccccc1`, for which the IC50 was determined as 3.15 nM.
The value for `CCOC(=O)C1=C(C)NC(C)=C(C(=O)OC)C1c1cnc(SC)n1Nc1ccccc1` (stereo not drawn) was 1.66 nM.
Then `CCCOC(=O)C1=C(C)NC(C)=C(C(=O)OC)C1c1cnc(SC)n1Nc1ccccc1` (stereo not drawn), with 2.4 nM.
Then `COC(=O)C1=C(C)NC(C)=C(C(=O)OC(C)C)C1c1cnc(SC)n1Nc1ccccc1` (stereo not drawn), with 6.35 nM.
As to `COCCOC(=O)C1=C(C)NC(C)=C(C(=O)OC)C1c1cnc(SC)n1Nc1ccccc1` (stereo not drawn), the IC50 amounted to 9.65 nM.
In the case of `COC(=O)C1=C(C)NC(C)=C(C(=O)OCc2ccccc2)C1c1cnc(SC)n1Nc1ccccc1` (stereo not drawn), the IC50 amounted to 2.21 nM.
